Measurements reported in US20070274956A1, “Plant Germination Inhibitor And Method Of Use Thereof” (priority 2004, published 2007).

System: Oryzias latipes var.
Experiment: Harm to fish grown in treated water
Assay type: in vivo
Conditions: 10 males and 10 females grown in aqueous solution, 1×10^−2 g/l; one week
Description: Forty Oryzias latipes var. (20 males and 20 females) were divided into two groups (each group: 10 males and 10 females). One group was grown in an aqueous solution of the coloring matter xylindein (1×10^−2 g/l) and the other was grown in water in the presence of wood on which mycelia of Chlorociboria aeruginosa developed and which was rotten and stained blue.

Structure (SMILES): CCC[C@H]1Cc2c(c(O)c3c(=O)cc4oc5c6c(c(O)c7c(=O)cc8oc2c3c4c8c57)C(=O)O[C@@H](CCC)C6)C(=O)O1 [xylindein]
- anomaly in the fish: no anomaly was observed
